Laboratory results published in patent publication US11905273B2, “Inhibitors for the B-catenin/B-cell lymphoma 9 (BCL9) protein-protein interaction” (H. LEE MOFFITT CANCER CENTER AND RESEARCH INSTITUTE, INC., priority 2017, dated 2024).
Counter-ions that a name gives are not always drawn. Like-named read-outs stand apart in the source and are kept apart here.

Columns and labels:
[1] = target: β-catenin/BCL9 (Homo sapiens (Human), UniProt P35222); assay: AlphaScreen competitive inhibition assay of the β-catenin/BCL9 interaction; assay type: binding; details: read-out: Ki ± SD β-catenin/BCL9
Method: AlphaScreen Assays. All experiments were performed in shite opaque 384-well plates from PerkinElmer (Waltham, MA) with an assay buffer of 25 mM HEPES (pH=7.4), 100 Mm nAcL, 0.1% BSA, and 0.01% Triton X-100. All sample signals were read on a excitation wavelength was set at 680 nm and emission at 570 nm. All of the final reaction volumes were set to 25 μL. In the cross-titration experiments of the wild-type β-catenin//wild-ty-e BCL9 interaction, N-terminally biotinlyated BCL9 (from 0 to 60 nM) and C-terminally His6-tagged μcatenin (2.5, 5, 10, 20, 40, and 80 nM) were titrated in 20 μg/mL) were added. The mixture was then covered black and incubated at 4° C. for 1 h before detection. All addition and incubation was made under subdued lighting conditions due to the photosensitivity of the beads. The data were analyzed by nonlinear least-square analyses using GraphPad Prism 5.0. Each experiment was repeated three times, and the results were expressed as mean ±standard deviation. The competitive binding experiments were performed to determine the apparent Kd values. The rule of the competitive binding experiments for associating the IC50 value with the Kd value are: (1) the expected Kd value should be 10 times higher than the concentration of either tested protein: (2) the concentrations of both tested proteins should be lower than the binding capacities of their respective beads; and (3) the concentration of the target protein (His6-tagged β-catenin) should be 10 times lower than that of the ligand protein (biotinylated BCL9). […] The donor and acceptor beads were added to a final concentration of 10 μg/mL in 25 μL assay buffer. The mixture was covered black and incubated for 1 h at 4° C. before detection. The IC50 values, which sere also the apparent Kd values from the AlphaScreen assay, were determined by nonlinear least-square analyses using GraphPad Prism 5.0. Each experiment was repeated three times, and the results were expressed as mean ±standard deviation.
For the β-catenin/BCL9 competitive inhibition assay, 5 nM of biotinylated BCL9 and 40 nM of His6-tagged β-catenin were incubated in assay buffer at 4° C. for 30 min. Different concentrations of the tested inhibitor were added and incubated in 20 μL assay buffer at 4°C. for another 1 h. All of the above assay plates were covered and gently mixed on an orbital shaker. The donor and acceptor beads were then added to the plates to a final concentration of 10 μg/mL in 25 μL assay buffer. The mixture was incubated for 1 h at 4° C. before detection. The IC50 value was determined by nonlinear least-square analysis of GraphPad Prism 5.0. The inhibition constant (Ki) values were derived from the […] values using a method reported by Nikolovska-Coleska et al.^26. […] The results were expressed as mean ±standard deviation.

[2] = test system: SW480; assay: MTs cancer cell growth inhibition assay, SW480; assay type: cell-based; details: Wnt/β-catenin-hyperactive, 72 h, mean ± SD (n = 3)
Method: (§1) MTs Cell Viability Assay. Colorectal cancer cell lines, SW480 and HCT116, and triple-negative breast cancer cell line MDA-MB-231 were seeded in 96-well plates at 4=10^3 cells/well, maintained overnight at 37°C., and incubated in the presence of 1 and 2 at various concentrations. Cell viability was monitored after 72 h using a freshly prepared mixture of 1 part phenazine methosulfate (PMS, Sigma) solution (0.92 mg/mL) and 19 parts 3-(4,5-dimethylthiazol-2-yl)-5-(3-carboxymethoxyphenyl)-2-(4-sulfophenyl)-2H-tetrazolium (MTs, Promega) solution (2 mg/mL). Cells were incubated in 10 μL of this solution at 37° C. for 3 h, and A490 was measured. […] Experiments were performed in triplicate.

[3] = test system: HCT116; assay: MTs cancer cell growth inhibition assay, HCT116; assay type: cell-based; details: Wnt/β-catenin-hyperactive, 72 h, mean ± SD (n = 3)
Method: as §1

[4] = test system: MDA-MB-231; assay: MTs cancer cell growth inhibition assay, MDA-MB-231; assay type: cell-based; details: Wnt/β-catenin-hyperactive, 72 h, mean ± SD (n = 3)
Method: as §1

[5] = test system: A549; assay: MTs growth inhibition assay, A549; assay type: cell-based; details: Wnt-latent, mean ± SD (n = 3)
[6] = test system: TOPFlash luciferase reporter (three wild-type Tcf binding sites) in β-catenin-activated HEK239; assay: Wnt-responsive TOPFlash luciferase reporter assay, β-catenin-activated HEK293; assay type: cell-based; details: 24 h treatment, mean ± SD (n = 3)
Method: (§2) Cell transfection and luciferase assay. FuGENE6(E269A, Promega) 96 well plate format was used for the transfection of HEK293 and SW480 cells according to the manufacturer's instruction. HEK293 cells were co-transfected with 45 ng of TOPFlash reporter gene, 135 ng pc DNA3.1-β-catenin, and 20 ng of pCMV-RL normalization reporter gene. SW480 cells were co-transfected with 60 ng of the TOPFlash or FOPFlash reporter gene and 40 ng of pCMV-RL, normalization reporter. Cells were cultured in DMEM and 10% FBS at 37° C. for 24 h, and different concentrations of inhibitors or DMSO was added After 24 h, the luciferase reporter activity was measured using the Dual-Glo system (E2940, Promega). Normalized luciferase activity in response to the treatment with 1 and 2 was compared with that obtained from the cells treated with DMSO. Experiments were performed in triplicate.

[7] = test system: TOPFlash luciferase reporter (three wild-type Tcf binding sites) in SW480; assay: Wnt-responsive TOPFlash luciferase reporter assay, SW480; assay type: cell-based; details: 24 h treatment, mean ± SD (n = 3)
Method: as §2

[8] = AlphaScreen, mean ± standard deviation (n = 3), Ki derived from IC50

Chain of β-catenin/BCL9 (P35222 whole entry): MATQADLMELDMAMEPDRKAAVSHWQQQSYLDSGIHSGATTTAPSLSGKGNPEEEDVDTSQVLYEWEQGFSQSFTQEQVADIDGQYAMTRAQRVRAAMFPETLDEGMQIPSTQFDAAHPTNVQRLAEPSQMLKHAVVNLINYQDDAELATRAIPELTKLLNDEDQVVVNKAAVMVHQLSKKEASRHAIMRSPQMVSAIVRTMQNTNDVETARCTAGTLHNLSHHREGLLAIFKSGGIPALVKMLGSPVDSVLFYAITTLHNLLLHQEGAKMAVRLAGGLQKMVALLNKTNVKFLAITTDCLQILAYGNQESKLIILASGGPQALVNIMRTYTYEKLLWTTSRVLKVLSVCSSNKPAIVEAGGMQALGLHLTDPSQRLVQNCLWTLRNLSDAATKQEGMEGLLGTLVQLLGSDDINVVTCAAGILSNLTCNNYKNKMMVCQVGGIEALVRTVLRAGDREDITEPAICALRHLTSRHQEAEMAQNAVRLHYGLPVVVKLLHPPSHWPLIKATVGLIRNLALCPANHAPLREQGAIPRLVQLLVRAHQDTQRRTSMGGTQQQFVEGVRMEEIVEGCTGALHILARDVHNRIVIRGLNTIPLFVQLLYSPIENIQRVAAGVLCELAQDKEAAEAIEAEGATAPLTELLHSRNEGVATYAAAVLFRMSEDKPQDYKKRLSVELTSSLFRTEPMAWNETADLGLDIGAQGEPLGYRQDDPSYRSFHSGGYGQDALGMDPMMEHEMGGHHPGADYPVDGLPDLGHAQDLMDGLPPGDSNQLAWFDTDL

Ki [1] [µM] | IC50 ([2]; Homo sapiens, SW480) [µM] | IC50 ([3]; Homo sapiens, HCT-116) [µM] | IC50 ([4]; Homo sapiens, MDA-MB-231) [µM] | IC50 ([5]; Homo sapiens, A549) [µM] | IC50 ([7]; Homo sapiens, SW480) [µM] | Structure (SMILES) | IC50 ([6]; HEK239) [µM] | Ki [1, 8] [µM] | IC50 [2] [µM] | IC50 [3] [µM] | IC50 [5] [µM] | IC50 [4] [µM] | IC50 [7] [µM] | IC50 [6] [µM]
8 ± 1.8 | 3.6 ± 1.9 | 9.6 ± 2.5 | 15 ± 6.1 | 23 ± 4.4 | 12 ± 1.5 | Fc1ccc(-c2cc(-c3ccc4cc(O[C@H]5CCNC5)c(-c5ccc(F)c(F)c5)cc4n3)ccc2O[C@H]2CCNC2)cc1 [Compound 1, 7-(3,4-difluorophenyl)-2-(4′-fluoro-6-((S)-pyrrolidin-3-yloxy)-[1,1′-biphenyl]-3-yl)-6-((S)-pyrrolidin-3-yloxy)quinoline dihydrochloride] | 26 ± 3.1 |  |  |  |  |  |  | 
 | 1.7 ± 0.9 | 2.2 ± 1 | 3.1 ± 1.2 | 7.5 ± 2.9 | 7.9 ± 1.4 | Fc1ccc(-c2cc(-c3cnc4cc(O[C@H]5CCNC5)c(-c5ccc(F)c(F)c5)cc4c3)ccc2O[C@H]2CCNC2)cc1 [Compound 2, 6-(3.4-difluorophenyl)-3-(4′-fluoro-6-((S)-pyrrolidin-3-yloxy)-[1,1′-biphenyl]-3-yl)-7-((S)-pyrrolidin-3-yloxy)quinoline dihydrochloride] | 14 ± 1.5 |  |  |  |  |  |  | 
 |  |  |  |  |  | O=C(Nc1ccc(O[C@H]2CCNC2)c(-c2ccc(F)cc2)c1)c1ccc(O[C@H]2CCNC2)c(C2CCCCC2)c1 [Compound 3, 3-cyclohexyl-N-(4′-fluoro-6-(((S)-pyrrolidin-3-yl)oxy)-[1,1′-biphenyl]-3-4-(((S)-pyrrolidin-3-yl)oxy)benzamidedihydrochloride] |  | 14 ± 1.6 | 6.6 ± 2.7 | 3.8 ± 1.5 | 3.8 ± 1.5 |  |  | 
 |  |  |  |  |  | O=C(Nc1ccc(O[C@H]2CCNC2)c(-c2ccc(F)cc2)c1)c1ccc(O[C@H]2CCNC2)c(C2=CCCCC2)c1 [Compound 4, N-(4^+-fluoro-6-(((S)-pyrrolidin-3-yl)oxy)-[1,1′-biphenyl]-6-(((S)-pyrrolidin-3-yl)oxy)-2′,3′,4′,5′-tetrahydro-[1.1′-biphenyl]-3-carboxamidedihydrochloride] |  | 7.1 ± 2.5 | 3.7 ± 2 | 6.9 ± 3.2 | 8.9 ± 2.7 | 3.4 ± 1.6 | 8.7 ± 2.3 | 
 |  |  |  |  |  | O=C(Nc1ccc(O[C@H]2CCNC2)c(-c2ccc(F)cc2)c1)c1ccc(O[C@H]2CCNC2)c(C2CCC(C(F)(F)F)CC2)c1 (stereo partly drawn) [Compound 5, N-(-4′-fluoro-6-(((S)-pyrrolidin-3-yl)oxy)-[1,1′-biphenyl]-3-yl)-4-(((S)-pyrrolidin-3-yl)oxy)-3-(4-(trifluoromethyl)cyclohexyl) benzamide dilydrocholoride] |  | 4.2 ± 2.3 | 3.6 ± 2.7 | 5.6 ± 2.7 | 4.8 ± 2.4 | 2.3 ± 1 | 10 ± 3.3 | 10 ± 3.2
